From patent US20110282056A1, “PROTEIN KINASE INHIBITORS AND USE THEREOF” (priority 2008, published 2011) come the findings set out here.

Common to all, as to type: biochemical
One experiment concerns the target T1, VEGFR3 (Homo sapiens, UniProt P35916).
T1 construct: purchased Millpore Corp. (Millipore) 14-681
In words: VEGFR3 enzyme activity assay (Caliper LC3000 mobility shift). To be noted: 400 uM ATP (Km), 0.4 nM VEGFR3, 90 minutes at RT. The protocol: (§1) Enzyme activity for VEGFR3, VEGFR2 and Flt3 were measured on the Caliper Life Sciences LC3000 (Hopkinton, Mass.). The system utilizes the principle of electroosmotic flow to separate and quantify the amount of phosphorylated-Fluorescein-labelled-peptide (product) from unphosphorylated-Fluorescein-labelled peptide (substrate). The amount of product and substrate are determined by measuring the peak heights from the electropherogram. The enzyme activity is then quantified by dividing the amount of product by the sum of the product and substrate. The inhibitory activity of a sample is measured by comparing the enzyme activity in the presence of sample versus the enzyme activity in the presence of dimethylsufoxide (DMSO). Specific assay conditions for each enzyme are listed below:
VEGFR3 assay: The peptide substrate at 1 uM (FITC-KKKKEEIYFFF-CONH2; synthesized at Tufts University, Boston, Mass.) was incubated with 400 uM of ATP, corresponding to the Michaelis-Menten (Km) constant of the enzyme/substrate reaction, and 0.4 nM of VEGFR3 (Millpore Corp., Cat. No. 14-681) for 90 minutes at RT. After 90 minutes, the reaction was stopped by the addition of 10 mM EDTA. The substrate and product were then separated on the LC3000.

Another experiment addresses T2, Flt3 (Homo sapiens, UniProt P36888).
T2 construct: purchased BPS Bioscience; San Diego, Calif; 40225
T2 sequence (P36888 27-993): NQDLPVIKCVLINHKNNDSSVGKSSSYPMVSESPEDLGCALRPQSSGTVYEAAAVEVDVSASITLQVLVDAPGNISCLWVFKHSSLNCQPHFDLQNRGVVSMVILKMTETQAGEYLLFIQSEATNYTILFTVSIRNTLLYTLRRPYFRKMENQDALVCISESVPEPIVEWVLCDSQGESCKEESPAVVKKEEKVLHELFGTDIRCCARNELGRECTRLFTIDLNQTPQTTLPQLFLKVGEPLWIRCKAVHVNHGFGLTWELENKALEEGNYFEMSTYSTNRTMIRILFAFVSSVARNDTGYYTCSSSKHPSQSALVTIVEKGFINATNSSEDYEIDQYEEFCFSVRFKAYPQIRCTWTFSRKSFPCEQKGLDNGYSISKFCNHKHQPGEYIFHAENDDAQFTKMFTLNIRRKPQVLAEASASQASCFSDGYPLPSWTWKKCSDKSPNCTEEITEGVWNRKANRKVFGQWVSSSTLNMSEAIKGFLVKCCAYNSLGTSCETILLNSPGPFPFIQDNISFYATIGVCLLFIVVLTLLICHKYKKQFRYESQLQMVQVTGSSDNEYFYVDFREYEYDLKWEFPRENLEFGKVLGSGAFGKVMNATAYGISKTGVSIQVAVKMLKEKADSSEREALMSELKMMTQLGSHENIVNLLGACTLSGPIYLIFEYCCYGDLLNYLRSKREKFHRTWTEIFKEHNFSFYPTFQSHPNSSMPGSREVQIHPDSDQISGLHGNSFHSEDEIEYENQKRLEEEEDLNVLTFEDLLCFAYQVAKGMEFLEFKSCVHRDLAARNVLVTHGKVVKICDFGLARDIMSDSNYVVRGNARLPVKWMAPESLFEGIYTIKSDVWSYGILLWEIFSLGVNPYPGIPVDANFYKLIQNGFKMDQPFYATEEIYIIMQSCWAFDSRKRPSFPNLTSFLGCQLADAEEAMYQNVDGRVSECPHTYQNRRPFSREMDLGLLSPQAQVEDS
In words: Flt3 enzyme activity assay (Caliper LC3000 mobility shift). The note with it: 350 uM ATP (Km), 3 nM Flt3, 90 minutes at RT. The method, then: as §1
Flt3 assay: The peptide substrate at 1 uM (FITC-AHA-UEAIYAAPFAKKK-CONH2; synthesized at Tufts University, Boston, Mass.) was incubated with 350 uM of ATP, corresponding to the Michaelis-Menten (Km) constant of the enzyme/substrate reaction, and 3 nM of Flt3 (BPS Bioscience; San Diego, Calif.; Cat. No. 40225) for 90 minutes at RT. After 90 minutes, the reaction was stopped by the addition of 10 mM EDTA. The substrate and product were then separated on the LC3000.

A further experiment concerns the target T3, VEGFR2 (Homo sapiens, UniProt P35968).
T3 construct: purchased BPS Bioscience; San Diego, Calif; 40301
In words: VEGFR2 enzyme activity assay (Caliper LC3000 mobility shift). To be noted: 160 uM ATP (Km), 1 nM VEGFR2, 90 minutes at RT. The protocol:
as §1
VEGFR2 assay: The peptide substrate at 1 uM (5-FL-EEPLYWSFPAKKK-CONH2; synthesized at Tufts University, Boston, Mass.) was incubated with 160 uM of ATP, corresponding to the Michaelis-Menten (Km) constant of the enzyme/substrate reaction, and 1 nM of VEGFR2 (BPS Bioscience; San Diego, Calif.; Cat. No. 40301) for 90 minutes at RT. After 90 minutes, the reaction was stopped by the addition of 10 mM EDTA. The substrate and product were then separated on the LC3000.

pIC50: −log10 of the molar value.

T1 sequence (P35916 25-1363): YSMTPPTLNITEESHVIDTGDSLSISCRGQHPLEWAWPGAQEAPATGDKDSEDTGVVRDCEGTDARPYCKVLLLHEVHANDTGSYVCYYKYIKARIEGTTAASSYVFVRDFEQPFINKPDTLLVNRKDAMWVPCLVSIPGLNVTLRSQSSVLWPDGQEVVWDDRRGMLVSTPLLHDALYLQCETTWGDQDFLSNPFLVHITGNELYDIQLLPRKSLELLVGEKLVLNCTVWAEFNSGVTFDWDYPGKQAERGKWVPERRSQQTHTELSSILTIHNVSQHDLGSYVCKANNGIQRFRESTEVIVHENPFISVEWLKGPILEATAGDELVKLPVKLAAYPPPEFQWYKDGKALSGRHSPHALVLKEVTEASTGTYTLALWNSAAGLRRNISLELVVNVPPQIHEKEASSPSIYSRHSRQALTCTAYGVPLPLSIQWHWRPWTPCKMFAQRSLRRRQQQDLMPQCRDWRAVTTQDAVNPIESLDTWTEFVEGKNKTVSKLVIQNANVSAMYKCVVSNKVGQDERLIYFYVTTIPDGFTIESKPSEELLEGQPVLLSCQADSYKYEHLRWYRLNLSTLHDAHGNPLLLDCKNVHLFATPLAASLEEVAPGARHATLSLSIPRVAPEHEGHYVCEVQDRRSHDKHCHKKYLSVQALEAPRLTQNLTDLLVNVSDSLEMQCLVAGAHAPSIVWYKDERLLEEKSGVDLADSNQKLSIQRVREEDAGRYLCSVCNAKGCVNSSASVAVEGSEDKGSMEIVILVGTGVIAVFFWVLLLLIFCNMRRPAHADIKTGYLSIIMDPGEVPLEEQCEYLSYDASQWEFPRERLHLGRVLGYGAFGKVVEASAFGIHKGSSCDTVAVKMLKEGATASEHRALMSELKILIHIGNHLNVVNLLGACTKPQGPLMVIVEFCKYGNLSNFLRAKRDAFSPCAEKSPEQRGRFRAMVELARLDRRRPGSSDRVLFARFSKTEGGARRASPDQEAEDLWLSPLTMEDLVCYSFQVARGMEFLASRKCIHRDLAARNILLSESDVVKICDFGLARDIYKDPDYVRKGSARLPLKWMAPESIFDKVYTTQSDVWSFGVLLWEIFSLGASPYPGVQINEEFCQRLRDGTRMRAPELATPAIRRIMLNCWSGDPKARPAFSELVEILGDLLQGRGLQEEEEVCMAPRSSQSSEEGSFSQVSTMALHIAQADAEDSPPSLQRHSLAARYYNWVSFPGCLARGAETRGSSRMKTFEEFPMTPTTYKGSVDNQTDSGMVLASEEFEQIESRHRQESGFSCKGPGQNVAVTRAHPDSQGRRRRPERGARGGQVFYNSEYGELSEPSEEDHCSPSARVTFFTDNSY
T3 sequence (P35968 20-1356): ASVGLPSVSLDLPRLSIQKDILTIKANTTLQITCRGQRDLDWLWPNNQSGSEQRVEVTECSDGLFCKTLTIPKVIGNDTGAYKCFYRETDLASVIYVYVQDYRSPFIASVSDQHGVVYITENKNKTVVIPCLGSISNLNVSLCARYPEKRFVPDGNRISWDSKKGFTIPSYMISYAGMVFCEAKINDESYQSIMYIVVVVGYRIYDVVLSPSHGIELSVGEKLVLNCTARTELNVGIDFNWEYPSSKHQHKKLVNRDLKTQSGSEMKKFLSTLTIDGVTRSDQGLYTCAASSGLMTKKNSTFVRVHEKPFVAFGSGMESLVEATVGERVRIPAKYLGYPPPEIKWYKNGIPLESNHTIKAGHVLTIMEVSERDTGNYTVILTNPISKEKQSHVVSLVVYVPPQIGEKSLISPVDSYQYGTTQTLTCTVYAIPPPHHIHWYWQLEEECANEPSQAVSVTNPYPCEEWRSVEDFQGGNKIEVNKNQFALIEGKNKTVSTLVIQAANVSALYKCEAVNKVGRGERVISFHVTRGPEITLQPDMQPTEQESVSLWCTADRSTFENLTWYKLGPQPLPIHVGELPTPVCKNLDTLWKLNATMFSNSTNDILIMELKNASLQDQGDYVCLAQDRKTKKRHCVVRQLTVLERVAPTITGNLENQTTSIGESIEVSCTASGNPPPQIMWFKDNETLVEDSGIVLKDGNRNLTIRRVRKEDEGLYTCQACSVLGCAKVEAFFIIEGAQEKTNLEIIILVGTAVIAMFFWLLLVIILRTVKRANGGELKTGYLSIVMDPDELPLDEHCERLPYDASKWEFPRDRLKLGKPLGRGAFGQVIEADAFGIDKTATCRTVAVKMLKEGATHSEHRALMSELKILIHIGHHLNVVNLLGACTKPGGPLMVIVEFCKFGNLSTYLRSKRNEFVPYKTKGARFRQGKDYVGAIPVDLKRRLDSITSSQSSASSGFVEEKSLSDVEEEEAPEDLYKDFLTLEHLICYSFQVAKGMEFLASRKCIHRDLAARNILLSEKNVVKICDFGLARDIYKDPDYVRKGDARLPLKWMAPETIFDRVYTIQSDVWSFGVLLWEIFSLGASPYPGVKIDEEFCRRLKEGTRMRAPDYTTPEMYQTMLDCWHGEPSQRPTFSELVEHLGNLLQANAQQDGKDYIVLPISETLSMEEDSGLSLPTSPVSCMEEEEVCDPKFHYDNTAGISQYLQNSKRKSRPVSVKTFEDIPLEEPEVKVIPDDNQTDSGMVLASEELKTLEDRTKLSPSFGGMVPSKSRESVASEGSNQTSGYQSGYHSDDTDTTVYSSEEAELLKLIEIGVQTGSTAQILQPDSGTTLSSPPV

One may read the pIC50 as −log10 of the IC50, conventionally taken in molar units. In the case of `COc1ccc(OC)c(C#Cc2ccnc3[nH]ccc23)c1` [compound 73], the pIC50 on VEGFR3 was 6.00 to 7.00; on Flt3, less than 6.00; at VEGFR2, less than 6.00.

For `C(#Cc1ccnc2[nH]ccc12)c1cccc(Nc2ccccc2)c1` [compound 104], the pIC50 on VEGFR3, on Flt3 and on VEGFR2 was less than 6.00 throughout.

In the case of `Nc1cccc(C#Cc2ccnc3[nH]ccc23)c1` [compound 99], the pIC50 on VEGFR3, on Flt3 and at VEGFR2 was less than 6.00 each time.

Consider `COc1ccc(C#Cc2ccnc(NC(=O)OC(C)(C)C)c2)cc1` [compound 132], for which the pIC50 on VEGFR3, at Flt3 and on VEGFR2 was less than 6.00 throughout.

For the compound `N#Cc1ccc(C#Cc2ccnc3[nH]ccc23)cc1` [compound 100], the pIC50 on VEGFR3, at Flt3 and at VEGFR2 was less than 6.00 in each case.

In the case of `FC(F)(F)Oc1cccc(C#Cc2ccnc3[nH]ccc23)c1` [compound 123], the pIC50 on VEGFR3, on Flt3 and on VEGFR2 was less than 6.00 throughout.

As to `Cc1cc(C)cc(C#Cc2ccnc3[nH]ccc23)c1` [compound 77], the negative-log IC50 (pIC50) at VEGFR3, at Flt3 and at VEGFR2 was less than 6.00 each time.

For `Cc1ccnc(C#Cc2ccnc3[nH]ccc23)c1` [compound 68], the pIC50 is 6.00 to 7.00 at VEGFR3, less than 6.00 at Flt3 and less than 6.00 on VEGFR2.

On to `O=C(Cc1ccccc1C#Cc1ccnc2[nH]ccc12)N1CCC(F)(F)CC1` [compound 121], for which the pIC50 on VEGFR3, on Flt3 and on VEGFR2 was less than 6.00 each time.

As to `COc1cccc(C#Cc2ccnc3[nH]ccc23)n1` [compound 63], the negative-log IC50 (pIC50) at VEGFR3 is 6.00 to 7.00; on Flt3 it was less than 6.00; at VEGFR2, less than 6.00.

Consider `CC(C)Oc1cccc(C#Cc2ccnc3[nH]ccc23)c1` [compound 102], for which the pIC50 at VEGFR3, on Flt3 and at VEGFR2 was less than 6.00 each time.

For `N#Cc1cncc(C#Cc2ccnc3[nH]ccc23)c1` [compound 91], the pIC50 on VEGFR3, on Flt3 and at VEGFR2 was less than 6.00 throughout.

Turning to `COc1cncc(C#Cc2ccnc3[nH]ccc23)c1` [compound 46], the pIC50 on VEGFR3, at Flt3 and on VEGFR2 was 6.00 to 7.00 in each case.

With `C(#Cc1ccnc2[nH]ccc12)c1ccncc1` [compound 87], the pIC50 at VEGFR3, at Flt3 and at VEGFR2 was less than 6.00 in each case.

Turning to `Cc1cc(C#Cc2ccnc3[nH]ccc23)ccc1C#N` [compound 94], the pIC50 on VEGFR3, on Flt3 and on VEGFR2 was less than 6.00 in each case.

With `COc1ccc(NC(=O)Cc2ccccc2C#Cc2ccnc3[nH]ccc23)cc1` [compound 139], the pIC50 on VEGFR3, at Flt3 and on VEGFR2 was less than 6.00 in each case.

Regarding `COc1ccc(F)cc1C#Cc1ccnc2[nH]ccc12` [compound 49], the pIC50 on VEGFR3 is 6.00 to 7.00; at Flt3 it was less than 6.00; at VEGFR2, less than 6.00.

For `Cc1cccc(C)c1C#Cc1ccnc2[nH]ccc12` [compound 117], the pIC50 on VEGFR3, on Flt3 and at VEGFR2 was less than 6.00 each time.

Consider `COc1cc(C#Cc2ccnc3[nH]ccc23)cc(OC)c1` [compound 74], for which the pIC50 at VEGFR3, on Flt3 and on VEGFR2 was less than 6.00 each time.

Turning to `NCc1ccccc1C#Cc1ccnc2[nH]ccc12` [compound 118], the pIC50 on VEGFR3, on Flt3 and on VEGFR2 was less than 6.00 in each case.

For `Cc1ccncc1C#Cc1ccnc2[nH]ccc12` [compound 57], the pIC50 on VEGFR3, on Flt3 and at VEGFR2 was 6.00 to 7.00 in each case.

Turning to `N#Cc1ccc(C#Cc2ccnc3[nH]ccc23)cn1` [compound 110], the pIC50 on VEGFR3, at Flt3 and on VEGFR2 was less than 6.00 in each case.
